Laboratory results: patent publication US20070259837A1, “Use of Non-Glucocorticoid Steroids for the Treatment of Muscular Dystrophy” (SANTHERA PHARMACEUTICALS (SCHWEIZ) AG, priority 2004, published 2007)
Like-named read-outs stand apart in the source and are kept apart here.

Key:
[1] = system: utrophin protein in human muscle cells derived from DMD patients; assay: Cell-based ELISA for normalized utrophin protein level in primary human myotube cultures; conditions: for % UTR vs. PDN (normalized utrophin protein as % of PDN-treated sister cultures): same experiment; for activity at 0.5 µM: Myotube, read-out: % UTR vs. DMSO (normalized utrophin protein over DMSO-solvent treated control)
Experimental: The method used to detect and determine utrophin-inducing activity of non-glucocorticoid steroids has been described previously (Courdier-Fruh, I., Barman, L., Briguet, A. & Meier, T.; 2002, Neuromuscul. Disord.; 12 Suppl:S95). Briefly, primary human muscle cell cultures were prepared according to standard protocols (Askanas V, Kwan H, Alvarez R B, Engel W K, Kobayashi T, Martinuzzi A, Hawkins E F., 1987, J Neurocytol., 16:523-537). Test compounds and the glucocorticoid 6α-methylprednisolone-21 sodium succinate (Pharmacia & Upjohn; Solu-Medrol®, PDN) as reference compound were applied at 500 nM final concentration as soon as myoblasts started to differentiate into myotubes. Incubation with the test compound was ended as soon as well differentiated myotubes have formed, typically resulting in an incubation time with a test compound for 3-7 days.
Normalized concentrations of utrophin protein in human muscle cells cultured in microtiter plates were determined by a cell-based enzyme-linked immunosorbent assay (ELISA) procedure that allows a successive readout for the cell density and utrophin protein level. For calibration, the cell density and differentiation was determined by absorbance measurements of the total dehydrogenase enzyme activity in each well using the colorimetric CellTiter 96®AQ One Solution Reagent Proliferation Assay (Promega) according to the manufacturer's recommendation. Subsequently, cells were fixed, washed, permeabilized with 0.5% (v/v) Triton X-100 and unspecific antibody binding-sites were blocked by standard procedures. Utrophin protein levels were determined immunologically with utrophin-specific primary antibodies (mouse monoclonal antibody to the amino terminal portion of utrophin, NCL-DRP2, Novocastra Laboratories) and with appropriate peroxidase-coupled secondary antibodies using QuantaBlu™ Fluorogenic Peroxidase Substrate Kit (Pierce) for detection. Fluorescence measurements were carried out with a multilabel counter (Wallac) at λex=325 nm and at λem=420 nm. The primary readout of this signal is presented in arbitrary units. For calibration, the arbitrary units representing the relative utrophin protein content of each well were divided by the corresponding cell-titer absorbance value to correct for cell density. For comparison between experiments, the cell-titer corrected readout for utrophin protein content in each well was expressed in percent of solvent treated control cultures (set to 100%). PDN was included in all experiments as reference glucocorticoid, N=3-5 for each compound tested.
Non-glucocorticoid test compounds, applied in a concentration of 500 nM, were regarded as “positive” in case the increase in the level of utrophin protein was at least 20% (mean value) over control cultures treated with the appropriate dilution of DMSO solvent as control and containing no test compound.
A range of different pharmaceutical compounds were tested for their ability to increase levels of utrophin protein in primary human myotube cultures. The cell-based ELISA protocol used to detect the level of utrophin protein is provided above and described in Courdier-Fruh, I., Barman, L., Briguet, A. & Meier, T, 2002, Neuromuscul. Disord.: 12, Suppl:S95. Briefly, fixed and permeabilized human muscle cells derived from DMD patients and cultured in 96-well cell culture plates were incubated with antibodies specific for utrophin at a dilution of 1:1'000 in blocking solution (phosphate buffered saline (PBS) supplemented with 2% fetal calf serum and 1% bovine serum albumin) for 10-15 hours at 4° C. Following several washing steps with 0.1% Triton X-100 in PBS, peroxidase-coupled secondary antibodies diluted 1:3'000 in blocking solution were applied in each well for 1-2 hours at room temperature. Signal detection, data acquisition and normalization was performed as described above and in Courdier-Fruh, I., Barman, L., Briguet, A. & Meier, T, 2002, Neuromuscul. Disord.: 12, Suppl:S95. […]

[2] = system: utrophin protein in human muscle cells derived from DMD patients; conditions: cited from earlier work; for increase of utrophin protein content in human muscle cells (reported for glucocorticoids): Courdier-Fruh et al. 2002
[3] = 500 nM compound, human muscle cultures, mean value, N=3-6

Compound | % UTR vs. PDN (normalized utrophin protein as % of PDN-treated sister cultures) [1, 3] [%] | activity at 0.5 µM ([1]; Homo sapiens) [%] | also measured
C[C@]12CCC3c4ccc(OCc5ccccc5)cc4CCC3C1C[C@@H](O)[C@@H]2O (stereo partly drawn) [Example 72] | 105 | 132 | –
C[C@]12CCC3c4ccc(OC(=O)c5ccccc5)cc4CCC3C1CC[C@@H]2O (stereo partly drawn) [Example 73] | 105 | – | activity at 0.5 µM [1, 3]: 132%
C[C@]12CCC3c4ccc(OC(=O)c5ccccc5)cc4CCC3C1CCC2=O (stereo partly drawn) [Example 74] | 103 | 124 | –
CCC(=O)Oc1ccc2c(c1)CCC1C2CC[C@@]2(C)C1C[C@@H](OC(=O)CC)[C@@H]2OC(=O)CC (stereo partly drawn) [Example 75] | 102 | 131 | –
CC(=O)Oc1ccc2c(c1)CCC1C2CC[C@]2(C)C(=O)CCC12 (stereo partly drawn) [Example 76, Estrone acetate] | 102 | 129 | –
CC(=O)O[C@H]1CCC2C3CCc4cc(O)ccc4C3CC[C@@]21C (stereo partly drawn) [Example 77] | 102 | 128 | –
C[C@]12CCC3c4ccc(OC(=O)c5ccccc5)cc4CCC3C1C[C@@H](O)[C@@H]2O (stereo partly drawn) [Example 78] | 99 | 124 | –
COc1ccc2c(c1)CCC1C2CC[C@@]2(C)C1CC[C@]2(C)O (stereo partly drawn) [Example 79] | 98 | 126 | –
C[C@]12CCC3c4ccc(O)cc4C=CC3C1CCC2=O (stereo partly drawn) [Example 80] | 96 | – | activity at 0.5 µM [1, 3]: 125%
C[C@]12C(=CCC1C1=CC(=O)OC1)C1CC[C@@H]3C[C@@H](O)CC[C@]3(C)C1C[C@H]2O (stereo partly drawn) [Example 81] | 103 | 129 | –
C[C@]12CCC3C(CC[C@]4(O)C[C@@H](O)CC[C@]34C=O)[C@@]1(O)CCC2C1=CC(=O)OC1 (stereo partly drawn) [Example 82] | 101 | 122 | –
CC(=O)O[C@@H]1C[C@]2(C)C(C3=CC(=O)OC3)CC[C@]2(O)C2CC[C@@H]3C[C@@H](O)CC[C@]3(C)C21 (stereo partly drawn) [Example 83] | 99 | 121 | –
C[C@]12CCC(=O)C[C@H]1CCC1C2C(=O)C[C@]2(C)C(C3=CC(=O)OC3)CC[C@]12O (stereo partly drawn) [Example 84] | 98 | 123 | –
C[C@]12C[C@@H](O)C3C(CC[C@@H]4C[C@@H](O)CC[C@]34C)C1=CCC2C1=CC(=O)OC1 (stereo partly drawn) [Example 85] | 99 | 120 | –
C[C@H]1C[C@@H]2[C@H]([C@@H](O)C[C@@]3(C)[C@H]2CC[C@]3(O)C(=O)COC(=O)CCC(=O)[O-])[C@@]2(C)C=CC(=O)C=C12.[Na+] [PDN, 6α-methylprednisolone-21 sodium succinate, reference compound] | – | – | inhibition of PDN-mediated utrophin increase by RU38486 ([2]; simultaneous exposure to RU38468, previous experiments (Courdier-Fruh 2002)): could be inhibited; utrophin protein levels normalized to cell density (UTR, relative units) compared to solvent-treated control (DMSO) ([1]; human DMD-patient derived muscle cells, 500 nM, FIG. 1 / FIG. 2, N=5-6): up to 200%
C[C@@H]1C[C@H]2[C@@H]3CCC4=CC(=O)C=C[C@]4(C)[C@@]3(F)[C@@H](O)C[C@]2(C)[C@@]1(O)C(=O)CO [dexametasone] | – | – | increase of utrophin protein content in human muscle cells (reported for glucocorticoids) [2]: increase of utrophin protein content
CC1(C)O[C@@H]2C[C@H]3[C@@H]4C[C@H](F)C5=CC(=O)C=C[C@]5(C)[C@@]4(F)[C@@H](O)C[C@]3(C)[C@]2(C(=O)CO)O1 [fluocinolone acetonide] | – | – | increase of utrophin protein content in human muscle cells (reported for glucocorticoids) [2]: increase of utrophin protein content
CC1(C)O[C@@H]2C[C@H]3[C@@H]4CCC5=CC(=O)CC[C@]5(C)[C@@]4(F)[C@@H](O)C[C@]3(C)[C@]2(C(=O)CCl)O1 [halcinonide] | – | – | increase of utrophin protein content in human muscle cells (reported for glucocorticoids) [2]: increase of utrophin protein content
C[C@H]1C[C@@H]2[C@H]([C@@H](O)C[C@@]3(C)[C@H]2CC[C@]3(O)C(=O)CO)[C@@]2(C)C=CC(=O)C=C12 [α-methylprednisolone] | – | – | increase of utrophin protein content in human muscle cells (reported for glucocorticoids) [2]: increase of utrophin protein content
Norethisterone [Example 40] | 106 | – | % UTR vs. DMSO (normalized utrophin protein over DMSO-solvent treated control) [1, 3]: 134%
